Several values for one entry are separate records, joined by “and”; a condition that tells them apart may be missing. Equal values may be shown once. e = 2'-O-(2-methoxyethyl) (MOE); d = 2'-deoxy (DNA)
How the values were obtained:
human PKK mRNA [1] = experiment: Antisense inhibition of human PKK mRNA in HepaRG cells, 5,000 nM (Example 2); assay type: cell-based; conditions: HepaRG cells, 5,000 nM, electroporation, 24 hours
Summary of the method: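 Chimeric MOE gapmers with full phosphorothioate backbones were tested once at 5,000 nM in electroporated HepaRG cells. After about 24 hours, quantitative PCR measured PKK mRNA relative to untreated control cells.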

PKK mRNA [2] = experiment: PKK mRNA in cynomolgus monkey liver (Example 8); assay type: in vivo; conditions: primates, Example 8
Procedure: (§1) Cynomolgus monkeys were treated with ISIS antisense oligonucleotides selected from studies described above. Antisense oligonucleotide efficacy and tolerability were evaluated. The human antisense oligonucleotides tested are cross-reactive with the rhesus genomic sequence (GENBANK Accession No. NW_001118167.1 truncated from nucleotides 2358000 to 2391000 and designated herein as SEQ ID NO: 18).
On day 87 or 88, 48 hours after the final dose, RNA was extracted from liver tissue for real-time PCR analysis of PKK using primer probe set RTS3455 (forward sequence […], designated herein as SEQ ID NO: 23; reverse sequence […], designated herein as SEQ ID NO: 24; probe sequence […], designated herein as SEQ ID NO: 25). The results were normalized to the housekeeping gene, Cyclophilin. Results are presented as percent inhibition of PKK mRNA, relative to PBS control.

[3] = Urine protein/creatinine ratio in cynomolgus monkeys (Example 8); conditions: cynomolgus monkey, 40 mg/kg sc
Procedure: (§7) Prior to the study, the monkeys were kept in quarantine for a 30-day period, during which the animals were observed daily for general health. The monkeys were 2-4 years old and weighed between 2 and 4 kg. Ten groups of four randomly assigned male cynomolgus monkeys each were injected subcutaneously with ISIS oligonucleotide or PBS. PBS solution or ISIS oligonucleotides at a dose of 40 mg/kg were administered initially with a loading regimen consisting of four doses on the first week of the study (days 1, 3, 5, and 7), followed by a maintenance regimen consisting of once weekly administration starting on Day 14 (weeks 2 to 13). Subcutaneous injections were performed in clock-wise rotations at 4 sites on the back; one site per dose. The injection sites were delineated by tattoo, while sedated using ketamine, and were separated by a minimum of 3 cm.
Kidney function was also assessed by urinalysis. Fresh urine from all animals was collected using a clean cage pan on wet ice. Food was removed overnight the day before fresh urine collection was done but water was supplied. The total protein and creatinine levels were measured using a Toshiba 120FR NEO automated chemistry analyzer (Toshiba Co., Japan) and the protein to creatinine ratio was calculated.

human PKK mRNA [4] = experiment: Human PKK mRNA in liver of human KLKB1 transgenic mice (Example 7); assay type: in vivo; conditions: transgenic mice, 2.5, 5.0, 10 or 20 mg/kg/week s.c.; three values for four doses, dose not assignable
Procedure: Transgenic mice containing a 37,390 base pair fragment of the human KLKB1 gene sequence (chromosome 4: position 187148672-187179625, accession no: NC_000004.11) were treated with ISIS antisense oligonucleotides selected from studies described above, which were evaluated for efficacy in this model.
Groups of transgenic mice were injected subcutaneously twice a week for 3 weeks with 2.5 mg/kg/week, 5.0 mg/kg/week, 10 mg/kg/week or 20 mg/kg/week of ISIS 546232, ISIS 546251, ISIS 546254, ISIS 546343, ISIS 546828, ISIS 547455, ISIS 547457, ISIS 547927, and ISIS 548048. One group of transgenic mice was injected subcutaneously twice a week for 3 weeks with PBS. Mice were euthanized 48 hours after the last dose, and organs and plasma were harvested for further analysis.
To evaluate the effect of ISIS oligonucleotides on target reduction, RNA was extracted from liver tissue for real-time PCR analysis of human PKK. Results are presented as percent inhibition of PKK mRNA, relative to PBS control.

[5] = Liver function markers in cynomolgus monkeys (Example 8); conditions: cynomolgus monkey plasma, 40 mg/kg sc
Procedure: as §7
To evaluate the effect of ISIS oligonucleotides on hepatic function, the monkeys were fasted overnight. Approximately, 1.5 mL of blood samples were collected from all the study groups. Blood was collected in tubes without anticoagulant for serum separation. The tubes were kept at room temperature for a minimum of 90 min and then centrifuged at 3,000 rpm for 10 min. Levels of various liver function markers were measured using a Toshiba 120FR NEO chemistry analyzer (Toshiba Co., Japan).

PKK protein = PKK protein in cynomolgus monkey plasma by ELISA (Example 8); assay type: in vivo; conditions: 40 mg/kg sc
Procedure: Approximately 0.9 mL of blood was collected each time from all available animals at pre-dose, day 17, day 31, day 45, day 59, and day 73, and placed in tubes containing 3.2% sodium citrate. The tubes were centrifuged (3000 rpm for 10 min at room temperature) to obtain plasma. PKK protein levels were measured in the plasma by ELISA. The results are presented in Table 52, expressed as percentage inhibition compared to the PBS control levels.

[6] = Kidney function: plasma BUN and creatinine in cynomolgus monkeys (Example 8); conditions: 40 mg/kg s.c.
[7] = Tolerability / clinical observation of cynomolgus monkeys (Example 8); assay type: in vivo, cynomolgus monkey; conditions: primates, Example 8
Procedure: as §1
During the study period, the monkeys were observed a minimum of once daily for signs of illness or distress. Any animal experiencing more than momentary or slight pain or distress due to the treatment, injury or illness was promptly reported to the responsible veterinarian and the Study Director. Any animal in poor health or in a possible moribund condition was identified for further monitoring and possible euthanasia. […] The protocols described in the Example were approved by the Institutional Animal Care and Use Committee (IACUC).

[8] = Hematological parameters in cynomolgus monkeys (Example 8); conditions: cynomolgus monkey, 40 mg/kg sc, day 87 or day 88
[9] = C-reactive protein and complement C3 levels in cynomolgus monkeys (Example 8); conditions: cynomolgus monkey plasma, 40 mg/kg sc
Procedure: as §7
To evaluate any inflammatory effect of ISIS oligonucleotides in cynomolgus monkeys, the monkeys were fasted overnight. Approximately, 1.5 mL of blood samples were collected from all the study groups. Blood was collected in tubes without anticoagulant for serum separation. The tubes were kept at room temperature for a minimum of 90 min and then centrifuged at 3,000 rpm for 10 min. C-reactive protein (CRP), which is synthesized in the liver and which serves as a marker of inflammation, was measured using a Toshiba 120FR NEO chemistry analyzer (Toshiba Co., Japan). Complement C3 was also measured similarly, and the data is presented as a percentage of baseline values.

human PKK mRNA [10] = experiment: Dose-dependent antisense inhibition of human PKK in HepaRG cells, 0.19-5.00 uM (Example 5); assay type: cell-based; conditions: 4 point dose response curve (0.19-5.0 μM), HepaRG cells, electroporation
Summary of the method: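 PKK mRNA knockdown was measured by real-time PCR (primer probe set RTS3454) about 16 h after electroporating 20,000 HepaRG cells per well with oligonucleotide at four doses from 0.19 to 5.00 μM. Levels were adjusted to RIBOGREEN-measured total RNA, and IC50 values were calculated.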

PKK mRNA [11] = experiment: PKK mRNA in liver of mice treated with ISIS 461756 (Example 18); assay type: in vivo, mouse; conditions: liver; all groups ISIS 461756 25 mg/kg/wk; pretreatment PBS or oligonucleotide 80 mg/kg/wk sc 3 weeks
Procedure: (§2) Vascular permeability induced by ISIS 461756, an antisense oligonucleotide which targets murine C1 inhibitor mRNA, increases vascular permeability in mice and replicates the pathology of hereditary angioedema. The effect of ISIS 482584 on this model was evaluated.
(§3) One group of 8 mice was treated with 40 mg/kg ISIS 482584 administered subcutaneously twice a week for 3 weeks (weekly dose of 80 mg/kg). A second group of 8 mice was treated with 40 mg/kg of the control oligonucleotide, ISIS 141923, administered subcutaneously twice a week for 3 weeks (weekly dose of 80 mg/kg). A third group of 8 mice was treated with PBS administered subcutaneously twice a week for 3 weeks. On day 14, all the groups were treated with 12.5 mg/kg ISIS 461756 administered subcutaneously twice a week for 3 weeks (weekly dose of 25 mg/kg). A control group of mice was treated with PBS administered subcutaneously twice a week for 3 weeks but was not administered ISIS 461756.
(§4) At the end of the treatment period, all the groups were injected with 30 mg/kg of Evans Blue solution into the tail vein. The mice were sacrificed 30 min after the Evans Blue solution administration and colons, feet, ears, and intestines were harvested. The liver was also harvested for RNA analysis.
(§5) RNA was isolated from the liver for RT-PCR analysis of C1-INH and PKK mRNAs. The primer probe set for C1-INH is RTS3218 (forward sequence […], designated herein as SEQ ID NO: 2234; reverse sequence […], designated herein as SEQ ID NO: 2235; probe sequence […], designated herein as SEQ ID NO: 2236). The primer probe set for PKK is RTS3287 (forward sequence […], designated herein as SEQ ID NO: 2237; reverse sequence […], designated herein as SEQ ID NO: 2238; probe sequence […], designated herein as SEQ ID NO: 2239). The results are presented in Table 79 as percent inhibition compared to the PBS control not treated with ISIS 461756.

[12] = test system: captopril and ISIS 461756-induced vascular permeability; experiment: Evans Blue vascular permeability in captopril and ISIS 461756-induced angioedema mouse models (Example 11); assay type: in vivo; conditions: captopril Yes, ISIS 461756 Yes; ISIS oligonucleotides 40 mg/kg sc twice a week 4 weeks; HOE-140 30 μg ip
Excerpt: Hereditary angioedema (HAE) is characterized by local swelling and increase in vascular permeability in subcutaneous tissues (Morgan, B. P. N. Engl. J. Med. 363: 581-83, 2010). It is caused by a deficiency of the C1 inhibitor, a protein of the complement system. Two mouse models were used in this study including an established mouse model of C1-INH deficiency and a captopril-induced edema model, both of which cause vascular permeability, a hallmark of HAE. Reversal of vascular permeability is accompanied by increased plasma levels of high molecular weight kininogen (HMWK).
In the first model, angioedema was induced by treatment with Captopril, a known antihypertensive agent, which increases vascular permeability in mice and replicates the pathology of hereditary angioedema.
In the second model, angioedema was induced by treatment with ISIS 461756, an antisense oligonucleotide which targets murine C1 inhibitor mRNA, which increases vascular permeability in mice and replicates the pathology of hereditary angioedema. ISIS 461756 (SEQ ID NO: 2245; […]) is a 5-10-5 MOE gapmer targeting nucleosides 1730-1749 of NM_009776.3 (SEQ ID NO: 2243).
The effect of HOE-140 and ISIS 482584, an antisense oligonucleotide inhibitor of PKK, were evaluated in the Captopril and ISIS 461756-induced mouse models of vascular permeability. Some of the murine groups were treated with HOE-140, a selective antagonist of the bradykinin B2 receptor, which blocks vasodilation and vascular permeability (Cruden and Newby, Expert Opin. Pharmacol. 9: 2383-90, 2008). Other mice were treated with ISIS 482584, which inhibits PKK mRNA expression. The effect of treatment with HOE-140 was compared with the effect of treatment with ISIS 482584.
Group 1 consisted of 4 C57BL/6J-Tyrc-2J mice treated with PBS administered subcutaneously twice a week for 4 weeks. No other treatment was administered to Group 1 which served as a control group to measure the basal level of vascular permeability.
Group 2 consisted of 8 C57BL/6J-Tyrc-2J mice treated with PBS administered subcutaneously twice a week for 4 weeks. At the end of the treatment, the mice were intraperitoneally administered 20 μg of captopril. Group 2 served as a PBS control group for captopril-induced vascular permeability.
(§6) Group 3 consisted of 8 C57BL/6J-Tyrc-2J mice treated with PBS administered subcutaneously twice a week for 4 weeks. On day 14, the mice were treated with 50 mg/kg of the antisense oligonucleotide targeting C1 inhibitor, ISIS 461756, administered subcutaneously twice a week for 2 weeks. At the end of the treatment period, the mice were intraperitoneally administered 20 μg of captopril. Group 3 served as a PBS control group for captopril and ISIS 461756-induced vascular permeability.
Group 4 consisted of 8 C57BL/6J-Tyrc-2J mice treated with PBS administered subcutaneously twice a week for 4 weeks. On day 14, the mice were treated with 50 mg/kg of the antisense oligonucleotide targeting C1 inhibitor, ISIS 461756, administered subcutaneously twice a week for 2 weeks. At the end of the treatment period, the mice were intraperitoneally administered 20 μg of captopril. The mice were then also intraperitoneally administered 30 μg of HOE-140. Group 4 served as a positive control for inhibition of vascular permeability with HOE-140.
as §6, with “5” for “3”, “40 mg/kg of control oligonucleotide ISIS 141923, a 5-10-5 MOE gapmer with no known murine target, ([…]; SEQ ID NO: 2246)” for “PBS”, “a” for “a PBS”, “permeability. […]” for “permeability.”

C1-INH mRNA = C1-INH mRNA in liver of mice treated with ISIS 461756 (Example 18); assay type: in vivo, mouse; conditions: liver; all groups ISIS 461756 25 mg/kg/wk; pretreatment PBS or oligonucleotide 80 mg/kg/wk sc 3 weeks
Procedure: as §2, §3, §4, §5

[13] = test system: vascular permeability induced by ISIS 461756; experiment: C1-INH antisense oligonucleotide-induced vascular permeability, Evans Blue OD600 (Example 18); assay type: in vivo, mouse; conditions: Evans Blue OD600; all groups ISIS 461756 25 mg/kg/wk; pretreatment PBS or oligonucleotide 80 mg/kg/wk
Procedure: as §2, §3, §4
The harvested tissues from the feet, colon, and intestines were placed in formamide solution overnight to leach out the Evans Blue dye. The formamide solution containing feet tissue was heated to 55° C. and left overnight. The color intensity of the dye-infused formamide solution was then measured at OD600 nm. The data is presented in Table 80 as percent increase or reduction compared to the PBS control not treated with ISIS 461756.

mCes mCes mCes mCes mCes Tds Tds mCds Tds Tds Tds Ads Tds Ads Gds mCes mCes Aes Ges mCe [ISIS 546343]
inhibition of human PKK mRNA (human PKK mRNA [1]): 97% and 91% | inhibiting PKK mRNA and protein expression in primates (PKK mRNA [2]): effective for inhibiting PKK mRNA and protein expression | Urine protein/creatinine ratio [3]: 0.01 | human PKK mRNA inhibition (human PKK mRNA [4]): 46% and 66% and 86% | ALT [5]: 76 IU/L | AST [5]: 49 IU/L | Albumin [5]: 4.3 g/dL | PKK protein level reduction (%) in plasma relative to control levels (PKK protein; Day 17): 56% | PKK protein level reduction (%) in plasma relative to control levels (PKK protein; Day 31): 74% | PKK protein level reduction (%) in plasma relative to control levels (PKK protein; Day 45): 69% | PKK protein level reduction (%) in plasma relative to control levels (PKK protein; Day 59): 70% | PKK protein level reduction (%) in plasma relative to control levels (PKK protein; Day 73): 70% | Plasma BUN [6]: 26.2 mg/dL | Plasma Creatinine [6]: 1.0 mg/dL | tolerability in primates [7]: tolerable in primates | HCT [8]: 42% | Hemoglobin [8]: 12.6 g/dL | Platelets [8]: 373000 µL⁻¹ | RBC [8]: 5.5e+06 µL⁻¹ | WBC [8]: 14000 µL⁻¹ | C3 (% of baseline) [9]: 60 % of baseline | CRP [9]: 0.2 mg/dL | IC50 (human PKK mRNA [10]): 400 nM

ISIS 141923: control oligonucleotide, 5-10-5 MOE gapmer with no known murine target, CCTTCCCTGAAGGTTCCTCC; SEQ ID NO: 2246 (sugars from the 5' end e5 d10 e5, backbone and methylation of C not given here) [reference compound]
Percent inhibition of PKK mRNA expression compared to the untreated PBS control (PKK mRNA [11]): 0% | OD600 nm of Evans Blue dye, Colons [12]: 0.44 | OD600 nm of Evans Blue dye, Ears [12]: 0.08 | OD600 nm of Evans Blue dye, Feet [12]: 0.14 | OD600 nm of Evans Blue dye, Intestines [12]: 0.29 | Percent inhibition of C1-INH mRNA expression compared to the untreated PBS control (C1-INH mRNA): 79% | Percent change in vascular permeability compared to the untreated PBS control, Colon [13]: 2% | Percent change in vascular permeability compared to the untreated PBS control, Feet [13]: 80% | Percent change in vascular permeability compared to the untreated PBS control, Intestines [13]: 14%

From patent US11840686B2, “Modulation of prekallikrein (PKK) expression” (Ionis Pharmaceuticals, Inc., priority 2013, dated 2023)
